Laboratory results reported in patent publication US9662323B2, “Compounds having muscarinic receptor antagonist and beta2 adrenergic receptor agonist activity” (CHIESI FARMACEUTICI S.p.A., priority 2015, dated 2017).
Read-outs that look alike come from different tables or passages of the source.

Experiments:
[1] = molecular target: T1, Human M3 receptor (Homo sapiens, UniProt P20309); assay: M3 Receptor Radioligand Binding Assay
T1 construct: purchased Perkin Elmer
Outline: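 Radioligand binding with 0.5% (v/v) final DMSO, incubated 2 h at room temperature with shaking. Membranes were collected on GF/C filters pre-treated with 0.5% polyethyleneimine, washed four times with assay buffer, and counted by scintillation.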

[2] = molecular target: T2, Human β2 adrenoceptor (Homo sapiens, UniProt P07550); assay: β2 Adrenoceptor Radioligand Binding Assay
T2 construct: purchased Perkin Elmer
Outline: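 Membranes were incubated 1 h at room temperature in 25 mM HEPES, 0.5% BSA, 1 mM EDTA, 0.02% ascorbic acid, pH 7.4, with 0.5% DMSO final. Bound radioligand was collected by GF/C filtration and counted by scintillation. IC50 values from competition curves were converted to Ki by Cheng–Prusoff.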

[3] = human M3 receptor membranes, [3H]-N-methyl scopolamine, read-out: M3 binding affinity (Ki class)
[4] = human β2 adrenoceptor membranes, 125-I Cyanopindolol, read-out: B2 binding affinity (Ki class)

T2 sequence (P07550 whole entry): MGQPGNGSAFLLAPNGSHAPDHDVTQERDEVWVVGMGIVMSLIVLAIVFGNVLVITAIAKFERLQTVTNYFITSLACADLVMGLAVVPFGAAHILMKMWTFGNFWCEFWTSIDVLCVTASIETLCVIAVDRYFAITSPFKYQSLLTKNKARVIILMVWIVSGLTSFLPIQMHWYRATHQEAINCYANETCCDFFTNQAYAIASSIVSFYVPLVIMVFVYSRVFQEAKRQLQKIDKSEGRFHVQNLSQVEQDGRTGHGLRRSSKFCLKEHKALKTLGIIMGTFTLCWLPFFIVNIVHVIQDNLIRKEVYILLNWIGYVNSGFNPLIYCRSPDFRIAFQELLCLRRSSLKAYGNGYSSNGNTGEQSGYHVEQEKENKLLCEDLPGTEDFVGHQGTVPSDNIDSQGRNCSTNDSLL
T1 sequence (P20309 whole entry): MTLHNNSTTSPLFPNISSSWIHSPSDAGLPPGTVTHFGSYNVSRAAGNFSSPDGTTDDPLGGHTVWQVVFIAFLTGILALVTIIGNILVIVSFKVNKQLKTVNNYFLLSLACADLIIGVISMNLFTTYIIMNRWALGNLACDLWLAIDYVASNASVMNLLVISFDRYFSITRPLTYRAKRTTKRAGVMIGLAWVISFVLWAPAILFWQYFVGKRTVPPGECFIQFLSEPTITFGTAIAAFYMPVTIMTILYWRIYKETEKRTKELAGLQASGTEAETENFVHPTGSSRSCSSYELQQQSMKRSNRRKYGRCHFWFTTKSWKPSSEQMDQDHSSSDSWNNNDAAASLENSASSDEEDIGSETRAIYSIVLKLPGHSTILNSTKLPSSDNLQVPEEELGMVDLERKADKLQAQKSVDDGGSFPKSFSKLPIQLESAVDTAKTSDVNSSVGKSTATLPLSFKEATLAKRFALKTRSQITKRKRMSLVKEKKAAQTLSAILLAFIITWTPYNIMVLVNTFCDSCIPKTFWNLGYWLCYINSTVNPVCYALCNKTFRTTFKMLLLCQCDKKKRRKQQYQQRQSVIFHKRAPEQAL

Row | SMILES | Ki [1, 3] [nM] | Ki [2, 4] [nM] | Ki [1] [nM] | Ki [2] [nM]
1 | CN(CCCNC[C@H](O)c1ccc(O)c2[nH]c(=O)ccc12)C(=O)Cc1ccc(CC(=O)N2CCC(C(=O)O[C@H]3CN4CCC3CC4)(c3ccccc3)CC2)cc1 [Compound 47, (R)-Quinuclidin-3-yl 1-(2-(4-(2-((3-(((R)-2-hydroxy-2-(8-hydroxy-2-oxo-1,2-dihydroquinolin-5-yl)ethyl)amino)propyl)(methyl)amino)-2-oxoethyl)phenyl)acetyl)-4-phenylpiperidine-4-carboxylate] | 1 to 10 | 1 to 10 | – | –
2 | O=C(c1ccc(OCCCCCCNC[C@H](O)c2ccc(O)c3[nH]c(=O)ccc23)cc1)N1CCC(C(=O)O[C@H]2CN3CCC2CC3)(c2ccccc2)CC1 [Compound 49, (R)-Quinuclidin-3-yl 1-(4-((6-(((R)-2-hydroxy-2-(8-hydroxy-2-oxo-1,2-dihydroquinolin-5-yl)ethyl)amino)hexyl)oxy)benzoyl)-4-phenylpiperidine-4-carboxylate] | < 1 | < 1 | – | –
3 | O=C(c1ccc(OCCCCCCNC[C@H](O)c2ccc(O)c3[nH]c(=O)ccc23)cc1)N1CCC(C(=O)O[C@H]2CN3CCC2CC3)(c2ccc(Br)cc2)CC1 [Compound 50, (R)-Quinuclidin-3-yl 4-(4-bromophenyl)-1-(4-((6-(((R)-2-hydroxy-2-(8-hydroxy-2-oxo-1,2-dihydroquinolin-5-yl)ethyl)amino)hexyl)oxy)benzoyl)piperidine-4-carboxylate] | > 10 | < 1 | – | –
4 | O=C(c1ccc(OCCCCCCNC[C@H](O)c2ccc(O)c3[nH]c(=O)ccc23)cc1)N1CCC(C(=O)O[C@H]2CN3CCC2CC3)(c2ccc(Cl)cc2)CC1 [Compound 51, (R)-Quinuclidin-3-yl 4-(4-chlorophenyl)-1-(4-((6-(((R)-2-hydroxy-2-(8-hydroxy-2-oxo-1,2-dihydroquinolin-5-yl)ethyl)amino)hexyl)oxy)benzoyl)piperidine-4-carboxylate] | 1 to 10 | < 1 | – | –
5 | CCN(CCCNC[C@H](O)c1ccc(O)c2[nH]c(=O)ccc12)C(=O)c1ccc(CCC(=O)N2CCC(C(=O)O[C@H]3CN4CCC3CC4)(c3ccccc3)CC2)cc1 [Compound 52, (R)-Quinuclidin-3-yl 1-(3-(4-(ethyl(3-(((R)-2-hydroxy-2-(8-hydroxy-2-oxo-1,2-dihydroquinolin-5-yl)ethyl)amino)propyl)carbamoyl)phenyl)propanoyl)-4-phenylpiperidine-4-carboxylate] | 1 to 10 | < 1 | – | –
6 | CN(CCCNC[C@H](O)c1ccc(O)c2[nH]c(=O)ccc12)C(=O)c1ccc(CCC(=O)N2CCC(C(=O)O[C@H]3CN4CCC3CC4)(c3ccccc3)CC2)cc1 [Compound 53, (R)-Quinuclidin-3-yl 1-(3-(4-((3-(((R)-2-hydroxy-2-(8-hydroxy-2-oxo-1,2-dihydroquinolin-5-yl)ethyl)amino)propyl)(methyl)carbamoyl)phenyl)propanoyl)-4-phenylpiperidine-4-carboxylate] | 1 to 10 | 1 to 10 | – | –
7 | O=C(CCc1ccc(C(=O)N(CCCNC[C@H](O)c2ccc(O)c3[nH]c(=O)ccc23)Cc2ccccc2)cc1)N1CCC(C(=O)O[C@H]2CN3CCC2CC3)(c2ccccc2)CC1 [Compound 54, (R)-Quinuclidin-3-yl 1-(3-(4-(benzyl(3-(((R)-2-hydroxy-2-(8-hydroxy-2-oxo-1,2-dihydroquinolin-5-yl)ethyl)amino)propyl)carbamoyl)phenyl)propanoyl)-4-phenylpiperidine-4-carboxylate] | 1 to 10 | 1 to 10 | – | –
8 | O=C(Cc1ccc(OCc2ccc(CNC[C@H](O)c3ccc(O)c4[nH]c(=O)ccc34)cc2)cc1)N1CCC(C(=O)O[C@H]2CN3CCC2CC3)(c2ccccc2)CC1 [Compound 55, (R)-Quinuclidin-3-yl 1-(2-(4-((4-((((R)-2-hydroxy-2-(8-hydroxy-2-oxo-1,2-dihydroquinolin-5-yl)ethyl)amino)methyl)benzyl)oxy)phenyl)acetyl)-4-phenylpiperidine-4-carboxylate] | < 1 | < 1 | – | –
9 | O=C(CCc1ccc(OCc2ccc(CNC[C@H](O)c3ccc(O)c4[nH]c(=O)ccc34)cc2)cc1)N1CCC(C(=O)O[C@H]2CN3CCC2CC3)(c2ccccc2)CC1 [Compound 56, (R)-Quinuclidin-3-yl 1-(3-(4-((4-((((R)-2-hydroxy-2-(8-hydroxy-2-oxo-1,2-dihydroquinolin-5-yl)ethyl)amino)methyl)benzyl)oxy)phenyl)propanoyl)-4-phenylpiperidine-4-carboxylate] | 1 to 10 | < 1 | – | –
10 | CC(=O)N(Cc1ccc(CNC[C@H](O)c2ccc(O)c3[nH]c(=O)ccc23)cc1)Cc1ccc(C(=O)N2CCC(C(=O)O[C@H]3CN4CCC3CC4)(c3ccccc3)CC2)cc1 [Compound 57, (R)-Quinuclidin-3-yl 1-(4-((N-(4-((((R)-2-hydroxy-2-(8-hydroxy-2-oxo-1,2-dihydroquinolin-5-yl)ethyl)amino)methyl)benzyl)acetamido)methyl)benzoyl)-4-phenylpiperidine-4-carboxylate] | < 1 | 1 to 10 | – | –
11 | CS(=O)(=O)N(Cc1ccc(CNC[C@H](O)c2ccc(O)c3[nH]c(=O)ccc23)cc1)Cc1ccc(C(=O)N2CCC(C(=O)O[C@H]3CN4CCC3CC4)(c3ccccc3)CC2)cc1 [Compound 58, (R)-Quinuclidin-3-yl 1-(4-((N-(4-((((R)-2-hydroxy-2-(8-hydroxy-2-oxo-1,2-dihydroquinolin-5-yl)ethyl)amino)methyl)benzyl)methylsulfonamido)-methyl)benzoyl)-4-phenylpiperidine-4-carboxylate] | 1 to 10 | 1 to 10 | – | –
12 | O=C(c1ccc(CN(Cc2ccc(CNC[C@H](O)c3ccc(O)c4[nH]c(=O)ccc34)cc2)C(=O)c2ccccc2)cc1)N1CCC(C(=O)O[C@H]2CN3CCC2CC3)(c2ccccc2)CC1 [Compound 59, (R)-Quinuclidin-3-yl 1-(4-((N-(4-((((R)-2-hydroxy-2-(8-hydroxy-2-oxo-1,2-dihydroquinolin-5-yl)ethyl)amino)methyl)benzyl)benzamido)methyl)benzoyl)-4-phenylpiperidine-4-carboxylate] | – | – | < 1 | > 10
13 | O=C(c1ccc(CN(Cc2ccc(CNC[C@H](O)c3ccc(O)c4[nH]c(=O)ccc34)cc2)C(=O)C2CC2)cc1)N1CCC(C(=O)O[C@H]2CN3CCC2CC3)(c2ccccc2)CC1 [Compound 60, (R)-Quinuclidin-3-yl 1-(4-((N-(4-((((R)-2-hydroxy-2-(8-hydroxy-2-oxo-1,2-dihydroquinolin-5-yl)ethyl)amino)methyl)benzyl)cyclopropanecarboxamido)-methyl)benzoyl)-4-phenylpiperidine-4-carboxylate] | < 1 | 1 to 10 | – | –
14 | O=C(c1ccc(CN(Cc2ccc(CNC[C@H](O)c3ccc(O)c4[nH]c(=O)ccc34)cc2)S(=O)(=O)c2ccccc2)cc1)N1CCC(C(=O)O[C@H]2CN3CCC2CC3)(c2ccccc2)CC1 [Compound 61, (R)-Quinuclidin-3-yl 1-(4-((N-(4-((((R)-2-hydroxy-2-(8-hydroxy-2-oxo-1,2-dihydroquinolin-5-yl)ethyl)amino)methyl)benzyl)phenylsulfonamido)-methyl)benzoyl)-4-phenylpiperidine-4-carboxylate] | – | – | < 1 | > 10
